Data: patent US11198673B2, “Therapeutic compounds and compositions” (eXIthera Pharmaceuticals, Inc., priority 2014, dated 2021)
Counter-ions that a name gives are not always drawn.

Key:
[1] = molecular target: T1, human Factor XIa (Homo sapiens, UniProt P03951); assay: Factor XIa enzyme inhibition assay (IC50, purified enzyme); assay type: biochemical; conditions: purified enzyme 0.25 nM, substrate 50 μM; read-out: Potency hFXIa IC50
T1 construct: Enzyme: Factor XIa; 0.25 μM in 50% glycerol (20 μg/mL)
Experimental: • Assay buffer: 20 mM Hepes, pH 7.4; 150 mM NaCl; 0.02% Tween 20 • Compounds: 10 mM stocks in DMSO • Substrate: 20 mM Glp-Pro-Arg-AMC, 25 mg/2.3 mL H2O (store at +4° C.) [Factor XIa, thrombin, and trypsin] • 20 mM Pro-Phe-Arg-AMC (Bachem I-1295), 25 mg/2.2 mL H2O (store at +4° C.) [Factor Xa] • Enzyme: Factor XIa; 0.25 μM in 50% glycerol (20 μg/mL) • Trypsin; 0.2 μM in 50% glycerol (4.8 μg/mL) • Thrombin; 0.2 μM in 50% glycerol (7.34 μg/mL) • Factor Xa; 0.2 μM in 50% glycerol (9.2 μg/mL) • These stocks are aliquoted ([…]) and stored at −20° C. Methods: • 1. Dilute the substrate to 100 μM in assay buffer (30 μL/6 mL). The enzyme is diluted to 0.5 nM just prior to use (12 μL/6 mL for Factor XIa; 15 μL/6 mL for all of the rest.) • 2. Pipette 50 μL of substrate into each well of the 96 well (12×8) microtiter plate. (Column 1 is used as the 100% activity control and receives no compound, and Column 12 is the blank and receives no enzyme.) Add an additional 46 μL to column 2. • 3. Pipette 4 μL of each compound into the appropriate well in column 2 of the plate (unknowns assayed in triplicate, standard assayed in duplicate). The final compound concentration will be 1/50th of the stock. • 4. Serially two-fold dilute the compound by mixing the sample in column 2, removing 50 μL to the next well (column 3), mix and remove to column 4, etc. until column 11. After mixing column 11, remove 50 μL and discard. • 5. Pipette 50 μL of buffer into column 12. Initiate the reaction by adding 50 μL of enzyme solution to each well of columns 1-11 as rapidly as possible. • 6. Read the plate in a spectrophotometer (SpectraMax) at 30° C., wherein each well is measured every 60 s for 30 min. For Factor Xa assays, each well is measured every 1 min for a total of 60 min. • 7. For Factor XIa assays, the compounds are assayed, in duplicate, at 3 different starting concentrations, 20, 2, and 0.2 μM; 1:10, 1:100, and 1:1000 dil'n of 10 mM stock. All data sets are combined for graphing and data fitting. • 8. Data can be used both for estimation of IC50 and for estimation of Kon.
Potential inhibitors of Factor XIa were evaluated using the following assay.
S-2366, pyroGlu-Pro-Arg-7-methylaminocourin (AMC), available from CPC Scientific, Inc., is based on the substrate pyro-Glu-Pro-Arg-pNA, available from Diapharma Group, Inc. (Columbus, Ohio), where the p-nitroanaline group is replaced with 7-methylaminocoumarin (AMC).
The final concentration of the substrate in the assay was 50 μM, and the final concentration of the enzyme was 0.25 nM. Inhibitors were tested by serial dilution over an appropriate range to yield a dose response curve for determination of the inhibitors' IC50 value. The assay mixture was read every minute for 30 minutes in order to generate progress curves. The plates were read in a Spectramax m5 Multimode Plate Reader (Molecular Devices LLC, Sunnyvale, Calif.). Dose response curves were fit to Equation 1 below in which A is the maximum inhibition, B is the minimum inhibition, C is the IC50, and D is the Hill coefficient. [(A−B)/(1+(X/C)^D)]+B (Equation 1)

[2] = β-Lactam stability in rat plasma; assay type: in vitro ADME; conditions: normal rat plasma, room temperature; read-out: Rat Plasma Stability (T1/2; min)
Experimental: Normal rat plasma, stored at −80° C.
• 1. Place 6 μL of each compound into 0.5 mL microcentrifuge tubes or 96-well U-bottom, polypropylene microtiter plate • 2. Place 40 μL of acetonitrile (AcN) into 0.5 mL microcentrifuge tubes labeled 1-9 • 3. Add 114 μL of plasma to each compound • 4. Sample 10 μL of compound/plasma into AcN at 2, 10, 20, 30, 60, 90, 120, 240, and 480 min of incubation at room temperature • 5. Mix each time point after adding sample and place on ice. • 6. Centrifuge time points (12,000 rpm, 3 min), remove 15 μL of the supernatant and mix with 15 μL 0.1% TFA in a V-bottom microtiter plate. • 7. Place microtiter plate in autosampler of HPLC and analyze on Restek Pinnacle C18 column (2.1×100 mm). • 8. Generate extracted ion chromatogram for parent compound and parent compound+18 (H2O). Integrate extracted ion chromatograms (EIC) and plot % total peak area for parent and adduct versus time. Fit to a model of single phase exponential decay [Y=A0*exp(−k*x)+C]. T½ is equal to ln(2)/k.

T1 sequence (P03951 388-625 limits assumed): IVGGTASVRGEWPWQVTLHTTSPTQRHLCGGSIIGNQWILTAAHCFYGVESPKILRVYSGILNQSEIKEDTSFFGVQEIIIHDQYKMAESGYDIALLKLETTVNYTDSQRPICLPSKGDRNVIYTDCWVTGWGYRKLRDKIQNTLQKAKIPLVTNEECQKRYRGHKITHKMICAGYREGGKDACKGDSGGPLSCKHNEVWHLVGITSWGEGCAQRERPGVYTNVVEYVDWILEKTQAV
T1 sequence (P03951 19-387 partner limits assumed): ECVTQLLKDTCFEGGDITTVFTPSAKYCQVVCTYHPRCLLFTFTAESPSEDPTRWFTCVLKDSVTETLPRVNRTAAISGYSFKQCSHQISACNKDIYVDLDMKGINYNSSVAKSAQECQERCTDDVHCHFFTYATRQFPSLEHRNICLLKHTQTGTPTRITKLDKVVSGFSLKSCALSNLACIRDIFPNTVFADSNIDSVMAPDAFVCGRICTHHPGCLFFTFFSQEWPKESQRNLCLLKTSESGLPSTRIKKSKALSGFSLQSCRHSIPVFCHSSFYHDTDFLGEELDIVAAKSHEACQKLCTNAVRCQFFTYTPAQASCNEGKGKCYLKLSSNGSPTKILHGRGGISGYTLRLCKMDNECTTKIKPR

| Structure (SMILES) | IC50 [1] | half-life [2] |
| --- | --- | --- |
| C[C@@H](NC(=O)N1C(=O)[C@H](Cc2ccnc(N)c2)[C@H]1C(N)=O)c1ccccc1 [Example 13, (2S,3R)-3-[(2-aminopyridin-4-yl)methyl]-4-oxo-N-1-[(1R)-1-phenylethyl]azetidine-1,2-dicarboxamide trifluoroacetate] | > 1000 nM |  |
| O=C(O)[C@@H]1[C@@H](Cc2ccnc(Cl)c2)C(=O)N1C(=O)NC(c1ccccc1)c1ccccc1 [Example 51] | > 1000 nM |  |
| CCCCCCOC(=O)Nc1cc(C[C@H]2C(=O)N(C(=O)NC(c3ccccc3)c3ccccc3)[C@@H]2C(=O)O)ccn1 [Example 56] | > 1000 nM | > 1.67 h |
| CCCCCCOC(=O)Nc1cc(C[C@H]2C(=O)N(C(=O)NC(c3ccccc3)c3ccccc3)[C@@H]2C(=O)OCC)ccn1 [Example 57] | > 1000 nM | < 1.67 h |
| CCOC(=O)[C@@H]1[C@@H](Cc2cccnc2)C(=O)N1C(=O)N[C@H](C)c1ccc2c(c1)OC(F)(F)O2 [Example 95] | > 1000 nM |  |
| C[C@@H](NC(=O)N1C(=O)[C@H](Cc2ccc(Cl)nc2)[C@H]1C(=O)O)c1ccc2c(c1)OC(F)(F)O2 [Example 96] | > 1000 nM |  |
| CCOC(=O)[C@@H]1[C@@H](Cc2ccc(Cl)nc2)C(=O)N1C(=O)N[C@H](C)c1ccc2c(c1)OC(F)(F)O2 [Example 97] | > 1000 nM | < 1.67 h |
| C[C@@H](NC(=O)N1C(=O)[C@H](Cc2cncs2)[C@H]1C(=O)O)c1ccc2c(c1)OC(F)(F)O2 [Example 102] | > 1000 nM | > 1.67 h |
| C[C@@H](NC(=O)N1C(=O)[C@H](Cc2cc(Cl)ccn2)[C@H]1C(=O)O)c1ccc2c(c1)OC(F)(F)O2 [Example 107] | > 1000 nM |  |
| C[C@@H](NC(=O)N1C(=O)[C@H](Cc2cncc(Cl)c2)[C@H]1C(=O)O)c1ccc2c(c1)OC(F)(F)O2 [Example 108] | > 1000 nM |  |
| C[C@@H](NC(=O)N1C(=O)[C@H](Cc2ccccn2)[C@H]1C(=O)O)c1ccc2c(c1)OC(F)(F)O2 [Example 114] | > 1000 nM |  |
| O=C(O)[C@@H]1[C@@H](Cc2cccc(Br)c2)C(=O)N1C(=O)N[C@@H](C1CCCCC1)C(F)(F)F [Example 131] | > 1000 nM |  |
| O=C(O)[C@@H]1[C@@H](Cc2cncc(Cl)c2)C(=O)N1C(=O)N[C@@H](C1CCCCC1)C(F)(F)F [Example 133] | > 1000 nM |  |
| O=C(O)[C@@H]1[C@@H](Cc2cccc3c2OCO3)C(=O)N1C(=O)N[C@@H](C1CCCCC1)C(F)(F)F [Example 136] | 100 to 1000 nM |  |
| O=C(O)[C@@H]1[C@@H](Cc2cccc3[nH]ncc23)C(=O)N1C(=O)N[C@@H](C1CCCCC1)C(F)(F)F [Example 138] | > 1000 nM |  |
| O=C(O)[C@@H]1[C@@H](Cc2ccccc2)C(=O)N1C(=O)N[C@@H](C1CCCCC1)C(F)(F)F [Example 139] | > 1000 nM |  |
| C[C@H](c1ccccc1)N(C)C(=O)N1C(=O)[C@H](CCc2cccc(Cl)c2)[C@H]1C(=O)O [Example 144] | > 1000 nM |  |
| O=C(O)[C@@H]1[C@@H](CCc2ccccc2)C(=O)N1C(=O)N[C@@H](C1CCCCC1)C(F)(F)F [Example 145] | > 1000 nM |  |
| O=C(O)[C@@H]1[C@@H](Cc2ccnc(O)c2)C(=O)N1C(=O)N[C@@H](C1CCCCC1)C(F)(F)F [Example 147] | > 1000 nM |  |
| C[C@H](C1CCCCC1)N(C)C(=O)N1C(=O)[C@H](Cc2ccnc(N)c2)[C@H]1C(=O)O [Example 149] | 10 to 100 nM |  |
| CCOC(=O)[C@@H]1[C@@H](Cc2ccnc(NC(=O)OC(C)OC(=O)C(C)C)c2)C(=O)N1C(=O)N[C@H](C)C1CCCCC1 (stereo partly drawn) [Example 150] | 10 to 100 nM | < 1.67 h |

| Structure (SMILES) | IC50 [1] | half-life [2] |
| --- | --- | --- |
| CCOC(=O)[C@@H]1[C@@H](Cc2ccnc(N)c2)C(=O)N1C(=O)N(C)[C@H](C)C1CCCCC1 [Example 151] | 10 to 100 nM | < 1.67 h |
| O=C(O)[C@@H]1[C@@H](CCCc2ccccc2)C(=O)N1C(=O)N[C@@H](C1CCCCC1)C(F)(F)F [Example 152] | > 1000 nM |  |
| O=C(O)[C@@H]1[C@@H](CCc2ccc(Cl)cc2)C(=O)N1C(=O)N[C@@H](C1CCCCC1)C(F)(F)F [Example 153] | > 1000 nM |  |
| COc1cccc(CC[C@H]2C(=O)N(C(=O)N[C@@H](C3CCCCC3)C(F)(F)F)[C@@H]2C(=O)O)c1 [Example 154] | > 1000 nM |  |
| Cc1cccc(CC[C@H]2C(=O)N(C(=O)N[C@@H](C3CCCCC3)C(F)(F)F)[C@@H]2C(=O)O)c1 [Example 155] | 100 to 1000 nM |  |
| O=C(O)[C@@H]1[C@@H](CCc2cccc(Cl)c2)C(=O)N1C(=O)NC(c1ccccc1)c1ccccc1 [Example 157] | > 1000 nM |  |
| C[C@@H](NC(=O)N1C(=O)[C@H](CCc2cccc(Cl)c2)[C@H]1C(=O)O)c1ccc2c(c1)OC(F)(F)O2 [Example 159] | 100 to 1000 nM |  |
| CCCCCCOC(=O)Nc1cc(C[C@H]2C(=O)N(C(=O)NC(C)c3ccccc3)[C@@H]2C(=O)OCC)ccn1 (stereo partly drawn) [Example 160] | 100 to 1000 nM | < 1.67 h |
| CC(C)OC(=O)[C@@H]1[C@@H](Cc2ccc(Cl)nc2)C(=O)N1C(=O)N[C@H](C)c1ccc2c(c1)OC(F)(F)O2 [Example 171] | > 1000 nM | < 1.67 h |
| CCCCCCOC(=O)Nc1cc(C[C@H]2C(=O)N(C(=O)N[C@H](C)c3ccccc3)[C@@H]2C(=O)O)ccn1 [Example 175] | > 1000 nM | > 1.67 h |
| C[C@@H](NC(=O)N1C(=O)[C@H](Cc2ccnc(Cl)c2)[C@H]1C(=O)O)c1ccccc1 [Example 190] | > 1000 nM |  |
| C[C@@H](NC(=O)N1C(=O)[C@H](Cc2cccnc2)[C@H]1C(=O)O)c1ccc2c(c1)OC(F)(F)O2 [Example 191] | > 1000 nM |  |
| CCCC(CCC)NC(=O)N1C(=O)[C@H](CCc2cccc(Cl)c2)[C@H]1C(=O)O [Example 192] | > 1000 nM |  |
| O=C(O)[C@@H]1[C@@H](Cc2cccc(Cl)c2)C(=O)N1C(=O)N[C@@H](C1CCCCC1)C(F)(F)F [Example 193] | > 1000 nM |  |
| O=C(O)[C@@H]1[C@@H](CCc2ccccc2Cl)C(=O)N1C(=O)N[C@@H](C1CCCCC1)C(F)(F)F [Example 194] | > 1000 nM |  |
| O=C(O)[C@@H]1[C@@H](Cc2ccc(Cl)cc2)C(=O)N1C(=O)N[C@@H](C1CCCCC1)C(F)(F)F [Example 195] | > 1000 nM |  |
| O=C(O)[C@@H]1[C@@H](Cc2ccccc2Cl)C(=O)N1C(=O)N[C@@H](C1CCCCC1)C(F)(F)F [Example 196] | > 1000 nM |  |
| O=C(O)[C@@H]1[C@@H](CCc2cc(Cl)ccc2F)C(=O)N1C(=O)N[C@@H](C1CCCCC1)C(F)(F)F [Example 197] | 100 to 1000 nM |  |
| O=C(O)[C@@H]1[C@@H](CCc2cc(Cl)ccc2Cl)C(=O)N1C(=O)N[C@@H](C1CCCCC1)C(F)(F)F [Example 198] | 100 to 1000 nM |  |
| O=C(O)[C@@H]1[C@@H](CCc2cccc(Cl)c2)C(=O)N1C(=O)N[C@@H](C1CCCCCCC1)C(F)(F)F [Example 199] | 100 to 1000 nM |  |
| O=C(O)[C@@H]1[C@@H](CCc2ccc(Br)s2)C(=O)N1C(=O)N[C@@H](C1CCCCC1)C(F)(F)F [Example 200] | > 1000 nM |  |
